The values that follow are results of earlier work, collected in patent US11686722B2, “Compositions and methods to detect molecules in a sample” (Infusense Corp., priority 2016, dated 2023).

For data set [1] the following is noted: neutral pH, reverse-phase HPLC estimation.
The conditions of data set [2]: neutral pH, shake-flask methodology.

Like-named read-outs stand apart in the source and are kept apart here.

For `CCCCCc1cc(O)c2c(c1)OC(C)(C)C1CCC(C(=O)O)=CC21` (stereo not drawn) [11-nor-9-carboxy-THC, 11-nor-9-carboxy-tetrahydrocannabinol], where the note is “following a dose of THC, urine”, the “time until metabolite appears in the urine, typical” value was no more than 1 h. Also, under “following a dose of THC, urine, can take as long as”, the “time until metabolite appears in the urine, longest” value is no more than 4 h.
Take `CCCCCc1cc(O)c2c(c1)OC(C)(C)[C@@H]1CCC(C)=C[C@@H]21` [THC, Δ^9-tetrahydrocannabinol]: the figures for the “n-octanol/water partition coefficient (KOW)” value in data set [1] and in data set [2] were 9,440,000 and 6000, respectively. Further, for the setting “in vivo”, the clearance half-life entry is on record as “less than 30 minutes”. Also, the detectability in urine result (urine) is “not detectable in urine”.
